# Results: patent US20220167645A1, “METHODS OF IMPROVING FISH FEED CONVERSION RATE AND SURVIVAL” (AQUINOVO LTD., priority 2019, published 2022)
# Where “and” joins values, the source holds several entries; their conditions need not be identical. Equal values may be shown once. Numbered stars: 1 amine (or outer) side, 2 acyl side, 3 side chain; on linkers, the order of the positions; unused ones are H or OH. Square brackets hold non-standard residues; d marks the D form. Suc = O=C(CCC(=O)[*:2])[*:1]; NMeV = CN[C@H](C(=O)O)C(C)C; βAla = NCCC(=O)O
# Tests used:
# Type in all cases: in vivo
# Tilapia fish [1] = assay: Experiment #1: tilapia fed AN6-coated feed in two phases (growth, biomass, mortality, FCR)
# Method: MeM (powder, manufactured by Bern Aqua), Nanolis P1, P2 (pellet sizes of 0.8-1 mm, 1-1.5 mm, respectively, manufactured by Ocialis) and Tilaphi 1, 2 & 3 (pellet sizes of 1-1.5 mm, 2 mm, 3-5.5 mm, respectively, manufactured by Ocialis) were used as basic regular feed. The basic feed was coated according to the following general procedure: 9 ml or 3 ml of Tris-HCl solution (50 mM, pH=8.8) were diluted to 60 ml with distilled H2O. For AN6-containing feed preparation, desired amounts of AN6 peptide (a TK antagonist having the sequence Succ-Asp-Ser-D-Trp—N(Me)Val-βAla-Leu-Met-NH2, SEQ ID NO. 6) were dissolved in the Tris-HCl solution. Then, each of the various solutions was mixed with 3 Kg of basic feed pellets using an electric mixer. The peptide-feed mixtures where then dried either in oven at 40° C. for 24 hours or in drying drum for few hours to form coated pellets. The total amount of each feed was 3 Kg.
# Tilapia fish (n=3600) have been raised from age 10 to 106 days post-hatch (dph) in indoor tanks kept under artificial lightening (12 h light; 12 h dark), and then transferred to cages in ponds for 160 days (total 8-9 months). The fish were fed to apparent satiation 2-4 times a day, for about 90 days (10-106 dph, Phase 1), either with regular feed (Feed A, Group A, n=600 in 3 repeats) or with feed coated with AN6 peptide solution in a ratio of 10 mg AN6/Kg feed (10 ppm, Feed C, Group B, n=600 in 3 repeats). In the second phase, fish in group B were fed for 50 days (207-257 dph, Phase 2) with feed coated with AN6 peptide solution, in a ratio of 30 mg AN6/Kg feed (30 ppm, Feed D, Group B). Between days 107 and 206 the fish received control feed (feed A).
# During the experiment period, the average fish weight was measured, and the daily growth rate was calculated by dividing the average weight gained in each measuring period by the number of days since the last measurement. […] This effect was also evident in the daily growth rate (FIG. 1, experiment #1). The relatively low growth rate measured in the initial phase of this experiment probably stemmed from high stocking density in tanks system in the initial period (Phase 1, Table 2, until day 106 post-hatch). This growth restriction was fully compensated in the larger cages in ponds (178 dph) where stocking density was much lower (from 106 dph, <10 Kg fish/m3).
# During the experiments described above, dead fish were removed from tanks before each feeding, and then counted and weighed. Dead fish were not replaced after the beginning of the experiment. In the cage systems, in which dead fish are undetectable, actual mortality was estimated by the difference between initial and final count.
# During the experiment described in example 2 (experiment #1), the fish were exposed to high stocking densities in indoor tanks (13-130 kg/m^3, 83-106 dph, Table 2, FIG. 7). High stocking density is known as a major fish stressor resulting, inter alia, in chronic increase in Cortisol levels, reduced growth, changes in behavior and inhibition of immune performance. Although mortality in these tanks was not high, a significant increase in mortality was observed following fish transfer to the pond (FIG. 7, 17.5%±2.4 mortality, x±SE).
# In order to determine the efficiency of feed conversion into fish substance in experiments (#1, #2, #3), FCR values which reflect the amount of feed needed to grow a kilogram fish, were calculated for each period and for the entire fish growth period. In order to determine the amount of consumed feed, the amount of feed provided was measured daily for each tank and the leftovers were collected, weighted and subtracted from the total amount of feed. Dead fish were removed every day before each feeding and then counted and weighed for accurate calculation of feed intake and FCR. […]
# [2] = tested on: TK receptors (tac1, tac2, tac3); assay: TK receptor mRNA expression following AN6 treatment; details: different parts of the gut and skin
# Tilapia fish [3] = assay: Feed conversion rate (FCR) calculated over experiments #1, #2, #3
# Method: In order to determine the efficiency of feed conversion into fish substance in experiments (#1, #2, #3), FCR values which reflect the amount of feed needed to grow a kilogram fish, were calculated for each period and for the entire fish growth period. In order to determine the amount of consumed feed, the amount of feed provided was measured daily for each tank and the leftovers were collected, weighted and subtracted from the total amount of feed. Dead fish were removed every day before each feeding and then counted and weighed for accurate calculation of feed intake and FCR. It is to be noted that high mortality can still influence FCR values since feed eaten by fish that have later died cannot be subtracted from the total feed consumed and on the other hand periodic total fish weight gained is underestimated (dead fish are not included). Three FCR values were calculated according to the following formulas:
# Specifically, improved FCR is observed 30 to 90 days after treatment initiation and can last at least 100 days after treatment stopped.
# Tilapia fish [4] = assay: Experiment #3: tilapia fed AN6-coated feed, treatment schedules 1 to 8 (survival, weight, length, size distribution, FCR); details: 10 mg AN6/Kg feed from 10 dph for 90 days; D279; compared to control
# [5] = 10 mg AN6/Kg feed 10-106 dph, first 200 days of experiment, vs control
substance,measurement,setting,value
Succ-Asp-Ser- D-Trp -N(Me)Val-βAla-Leu-Met-NH2 (Suc-DS[dW][NMeV][βAla]LM-NH2; SMILES CSCC[C@H](NC(=O)[C@H](CC(C)C)NC(=O)CCNC(=O)[C@H](C(C)C)N(C)C(=O)[C@@H](Cc1c[nH]c2ccccc12)NC(=O)[C@H](CO)NC(=O)[C@H](CC(=O)O)NC(=O)CCC(=O)O)C(N)=O) [AN6],daily growth rate,Tilapia fish [1]; [5],no differences
same,fish average weight,Tilapia fish [1]; [5],no differences
same,FCR and growth performance,Tilapia fish [1]; 10 and 30 mg AN6/Kg feed (experiment #1),both improved FCR and growth performance
same,number of fish in the upper 6.5th decile,Tilapia fish [1]; AN6 treatment group (control 6%),12%
same,number of fish in the lower 2th decile,Tilapia fish [1]; AN6 treatment group (control 9%),7%
same,mortality following fish transfer to the pond (x±SE),"Tilapia fish [1]; after high stocking density in tanks, control 17.5%±2.4, FIG. 7",10.5%±1.8
same,increased total biomass,"Tilapia fish [1]; experiment #1, FIG. 3A, vs control",+18%
same,reduction of fish mortality as compared to the control groups,"Tilapia fish [1]; in the pond, FIG. 7",8.5%
same,"weight gained normalized according to the initial body weight, difference compared to the control group",Tilapia fish [1]; second phase of the experiment (FIG. 2A),6% and 9%
same,"expression of all TK receptors (tac1, tac2, tac3)",[2],altered
same,FCR-growth relationship,"Tilapia fish [3]; 5, 10 mg and 30 mg AN6/Kg feed in other cases (experiments #2 and #3), with decrease in feed intake",improved FCR which did not coincide with improved growth
same,FCR in adult fish,"Tilapia fish [3]; all AN6 peptide treatments, FIGS. 5A, 5B, 10, 11, 12",significantly improves FCR
same,duration of improved FCR after treatment stopped,Tilapia fish [3]; in vivo,at least 100 days
same,increase in average fish weight,Tilapia fish [4],+3.89%
